Columns and labels:
rat [1] = details: Prenatal developmental toxicity study, sprague dawley, Oral, Gavage/Intubation, dose end: 18 GD
rabbit [2] = details: Sub-acute repeat dose toxicity, Oral, Gavage/Intubation, dose end: 5 day, group: systemic
rat [3] = details: Sub-acute repeat dose toxicity, sprague dawley, Oral, Gavage/Intubation, dose end: 14 day, group: systemic
primate [4] = details: Sub-acute repeat dose toxicity, Oral, Gavage/Intubation, dose end: 28 day, group: systemic
rat [5] = details: Sub-acute repeat dose toxicity; sprague dawley; Oral; Gavage/Intubation; dose end: 29 day; group: systemic; systemic / in life observation / clinical signs / salivation
rat [6] = details: Fertility (Segment I), Oral, Gavage/Intubation, dose end: 1 generation, group: parental
rat [7] = details: Chronic toxicity, sprague dawley, Oral, Gavage/Intubation, dose end: 180 day, group: systemic
rat [8] = details: Fertility (Segment I), Oral, Gavage/Intubation, dose end: 1 generation, group: parental; remark: listed apart in the source
primate [9] = details: Sub-acute repeat dose toxicity, Oral, Gavage/Intubation, dose end: 10 day, group: systemic
rabbit [10] = details: Prenatal developmental toxicity study, new zealand white, Oral, Gavage/Intubation, dose end: 19 GD
rabbit [11] = details: Prenatal developmental toxicity study; Oral; Gavage/Intubation; dose end: 19 GD; group: maternal; reproductive / reproductive performance / aborted / aborted + systemic / in life observation / food consumption / food consumption + …
rat [12] = details: Fertility (Segment I), Oral, Gavage/Intubation, dose end: 1 generation
rabbit [13] = details: Sub-acute repeat dose toxicity, Oral, Gavage/Intubation, dose end: 13 day
rat [14] = details: Prenatal developmental toxicity study; sprague dawley; Oral; Gavage/Intubation; dose end: 18 GD; group: maternal; systemic / in life observation / body weight / body weight gain + systemic / in life observation / food consumption / food consumption
rat [15] = details: Fertility (Segment I), Oral, Gavage/Intubation, dose end: 1 generation, group: parental; remark: listed apart in the source
[16] = group: developmental, developmental / developmental malformation / bone / delayed ossification + systemic / in life observation / body weight / fetal weight
[17] = group: maternal, systemic / in life observation / clinical signs / salivation
[18] = group: maternal, systemic / in life observation / clinical signs / salivation + systemic / in life observation / body weight / body weight gain
[19] = systemic / in life observation / body weight / body weight + systemic / in life observation / clinical signs / abnormal feces + systemic / …
[20] = systemic / in life observation / body weight / body weight gain + systemic / in life observation / clinical signs / dehydration + systemic…
[21] = systemic / in life observation / clinical signs / salivation
[22] = systemic / clinical chemistry / [other] / [other] + systemic / in life observation / clinical signs / abnormal feces + systemic / in life …
[23] = systemic / in life observation / clinical signs / fur (altered appearance) + systemic / in life observation / clinical signs / salivation
[24] = systemic / clinical chemistry / 5' nucleotidase / 5' nucleotidase + systemic / clinical chemistry / alanine aminotransferase (alt/sgpt) / …
[25] = systemic / in life observation / body weight / body weight gain + systemic / in life observation / food consumption / food consumption
[26] = systemic / in life observation / clinical signs / abnormal respiratory sounds + systemic / in life observation / clinical signs / fur (…
[27] = systemic / in life observation / clinical signs / abnormal feces + systemic / in life observation / clinical signs / salivation
[28] = systemic / in life observation / clinical signs / abnormal feces + systemic / in life observation / clinical signs / salivation + systemic…
[29] = group: developmental, systemic / in life observation / body weight / fetal weight
[30] = group: maternal, systemic / in life observation / body weight / body weight + systemic / in life observation / body weight / body weight gain + systemic / in…
[31] = group: maternal, reproductive / reproductive performance / estrous cycle / abnormal
[32] = group: parental, systemic / in life observation / food consumption / food consumption
[33] = group: maternal, reproductive / reproductive performance / aborted / aborted + reproductive / reproductive performance / resorptions / resorptions
[34] = group: systemic, systemic / in life observation / body weight / body weight gain + systemic / in life observation / food consumption / food consumption
[35] = systemic / in life observation / body weight / body weight + systemic / in life observation / food consumption / food consumption + systemic…

Compound: CC(C)(O)c1coc(S(=O)(=O)NC(=O)Nc2c3c(cc4c2CCC4)CCC3)c1
- LEL (rat [1]; [16]): 500 mg/kg/day
- LOAEL (rat [1]; [16]): > 500 mg/kg/day
- NOAEL (rat [1]; [16]): ≥ 500 mg/kg/day
- LEL (rat [1]; [17]): 50 mg/kg/day
- NEL (rat [1]; [17]): < 50 mg/kg/day
- LOAEL (rat [1]; [18]): > 500 mg/kg/day
- NOAEL (rat [1]; [18]): ≥ 500 mg/kg/day
- LOAEL (rabbit [2]; [19]): > 500 mg/kg/day
- NEL (rabbit [2]; [19]): 50 mg/kg/day
- NOAEL (rabbit [2]; [19]): ≥ 500 mg/kg/day
- LEL (rabbit [2]; systemic / in life observation / food consumption / food consumption): 250 mg/kg/day
- LOAEL (rat [3]; [20]): > 1000 mg/kg/day
- NOAEL (rat [3]; [20]): ≥ 1000 mg/kg/day
- LEL (rat [3]; [21]): 100 mg/kg/day
- NEL (rat [3]; [21]): < 100 mg/kg/day
- LOAEL (primate [4]; [22]): > 200 mg/kg/day
- NEL (primate [4]; [22]): 2 mg/kg/day
- NOAEL (primate [4]; [22]): ≥ 200 mg/kg/day
- LEL (primate [4]; systemic / in life observation / clinical signs / abnormal feces): 50 mg/kg/day
- LEL (rat [5]): 100 mg/kg/day
- LOAEL (rat [5]): > 500 mg/kg/day
- NEL (rat [5]): 10 mg/kg/day
- NOAEL (rat [5]): ≥ 500 mg/kg/day
- LOAEL (rat [6]; [23]): > 500 mg/kg/day
- NOAEL (rat [6]; [23]): ≥ 500 mg/kg/day
- LEL (rat [6]; [21]): 25 mg/kg/day
- NEL (rat [6]; [21]): < 25 mg/kg/day
- LOAEL (rat [7]; [24]): > 500 mg/kg/day
- NOAEL (rat [7]; [24]): ≥ 500 mg/kg/day
- LEL (rat [7]; [25]): 25 mg/kg/day
- NEL (rat [7]; [25]): < 25 mg/kg/day
- LOAEL (rat [8]; [26]): > 500 mg/kg/day
- NOAEL (rat [8]; [26]): ≥ 500 mg/kg/day
- LEL (rat [8]; [21]): 25 mg/kg/day
- NEL (rat [8]; [21]): < 25 mg/kg/day
- LEL (primate [9]; [27]): 10 mg/kg/day
- NEL (primate [9]; [27]): < 10 mg/kg/day
- LOAEL (primate [9]; [28]): > 200 mg/kg/day
- NOAEL (primate [9]; [28]): ≥ 200 mg/kg/day
- LEL (rabbit [10]; [29]): 250 mg/kg/day
- LOAEL (rabbit [10]; [29]): > 250 mg/kg/day
- NOAEL (rabbit [10]; [29]): ≥ 250 mg/kg/day
- LEL (rabbit [10]; [30]): 250 mg/kg/day
- LOAEL (rabbit [10]; [30]): > 250 mg/kg/day
- NEL (rabbit [10]; [30]): 100 mg/kg/day
- NOAEL (rabbit [10]; [30]): ≥ 250 mg/kg/day

Compound: CNCc1ccc(NC(=O)c2c[nH]c3c2C(=O)CCC3)cc1
- LEL (rabbit [11]): 300 mg/kg/day
- LOAEL (rabbit [11]): > 300 mg/kg/day
- NEL (rabbit [11]): 100 mg/kg/day
- NOAEL (rabbit [11]): ≥ 300 mg/kg/day
- LEL (rat [12]; [31]): 250 mg/kg/day
- LOAEL (rat [12]; [31]): > 1000 mg/kg/day
- NEL (rat [12]; [31]): 25 mg/kg/day
- NOAEL (rat [12]; [31]): ≥ 1000 mg/kg/day
- LEL (rat [12]; [32]): 1000 mg/kg/day
- LOAEL (rat [12]; [32]): > 1000 mg/kg/day
- NEL (rat [12]; [32]): 250 mg/kg/day
- NOAEL (rat [12]; [32]): ≥ 1000 mg/kg/day
- LEL (rabbit [13]; [33]): 300 mg/kg/day
- LOAEL (rabbit [13]; [33]): > 300 mg/kg/day
- NEL (rabbit [13]; [33]): 150 mg/kg/day
- NOAEL (rabbit [13]; [33]): ≥ 300 mg/kg/day
- LEL (rabbit [13]; [34]): 300 mg/kg/day
- LOAEL (rabbit [13]; [34]): > 300 mg/kg/day
- NEL (rabbit [13]; [34]): 150 mg/kg/day
- NOAEL (rabbit [13]; [34]): ≥ 300 mg/kg/day
- LEL (rat [14]): 250 mg/kg/day
- LOAEL (rat [14]): > 1000 mg/kg/day
- NEL (rat [14]): 25 mg/kg/day
- NOAEL (rat [14]): ≥ 1000 mg/kg/day
- LOAEL (rat [15]; [35]): > 1000 mg/kg/day
- NEL (rat [15]; [35]): 25 mg/kg/day
- NOAEL (rat [15]; [35]): ≥ 1000 mg/kg/day
- LEL (rat [15]; systemic / in life observation / body weight / body weight + systemic / pathology gross / intestine large / dilatation): 250 mg/kg/day
